Data reported in ChEMBL document CHEMBL4673388, “Enhancing Antimicrobial Peptide Potency through Multivalent Presentation on Coiled-Coil Nanofibrils” (ACS Med Chem Lett, 2021).
≈ marks a conversion by molar mass, not a printed value. Calls of active or inactive are those of the source. No cut-off for these calls is given here. Residues, ends and D or L forms follow the SMILES beside them.

What was measured:
[1] = tested on: Staphylococcus aureus; assay: Antibacterial activity against Staphylococcus aureus ATCC 25923 assessed as inhibition of bacterial growth incubated for 16 to 20 hrs by microdilution method; assay type: functional; settings: time 16-20 hrs
[2] = tested on: Staphylococcus aureus; assay: Bactericidal activity against methicillin-resistant Staphylococcus aureus ATCC 43300 assessed as reduction in bacterial growth at MIC measured for 25 hrs by time kill assay; assay type: functional, organism-based
[3] = Hemolytic activity in human red blood cells at 100 ug/ml incubated for 45 mins compound conjugated on alpha-helical colied-coil FF03 peptide; assay type: ADME, cell-based, Erythrocyte; settings: red blood cells (erythrocytes), at 100 µg/mL, read-out: Activity
[4] = tested on: HEK293; assay: Cytotoxicity against human HEK293 cells up to 90 ug/ml measured after 48 hrs by CCK8 assay; assay type: cell-based; settings: hek293, 48 h, dose <=90 µg/ml
[5] = tested on: Escherichia coli; assay: Antibacterial activity against Escherichia coli ATCC 25922 assessed as inhibition of bacterial growth incubated for 16 to 20 hrs by microdilution method; assay type: functional; settings: time 16-20 hrs
[6] = tested on: MCF7; assay: Cytotoxicity against human MCF7 cells up to 90 ug/ml measured after 48 hrs compound conjugated on alpha-helical coiled-coil FF03 peptide by CCK8 assay; assay type: cell-based; settings: mcf7, 48 h, dose <=90 µg/ml
[7] = Hemolytic activity in human red blood cells at 100 ug/ml incubated for 45 mins; assay type: ADME, cell-based, Erythrocyte; settings: red blood cells (erythrocytes), at 100 µg/mL, read-out: Activity
[8] = tested on: HEK293; assay: Cytotoxicity against human HEK293 cells up to 90 ug/ml measured after 48 hrs compound conjugated on alpha-helical coiled-coil FF03 peptide by CCK8 assay; assay type: cell-based; settings: hek293, 48 h, dose <=90 µg/ml
[9] = tested on: Pseudomonas aeruginosa; assay: Antibacterial activity against Pseudomonas aeruginosa ATCC 15442 assessed as inhibition of bacterial growth incubated for 16 to 20 hrs compound conjugated on alpha-helical coiled-coil FF03 peptide by microdilution method; assay type: functional; settings: time 16-20 hrs
[10] = tested on: Staphylococcus aureus; assay: Antibacterial activity against methicillin-resistant Staphylococcus aureus ATCC 43300 assessed as inhibition of bacterial growth incubated for 16 to 20 hrs compound conjugated on alpha-helical coiled-coil FF03 peptide by microdilution method; assay type: functional; settings: time 16-20 hrs
[11] = tested on: MCF7; assay: Cytotoxicity against human MCF7 cells up to 90 ug/ml measured after 48 hrs by CCK8 assay; assay type: cell-based; settings: mcf7, 48 h, dose <=90 µg/ml
[12] = tested on: Staphylococcus aureus; assay: Bactericidal activity against methicillin-resistant Staphylococcus aureus ATCC 43300 assessed as reduction in bacterial growth at MIC compound conjugated on alpha-helical coiled-coil FF03 peptide measured within 5 hrs by time kill assay; assay type: functional, organism-based; settings: time hrs <=5
[13] = tested on: Staphylococcus aureus; assay: Antibacterial activity against methicillin-resistant Staphylococcus aureus ATCC 43300 assessed as inhibition of bacterial growth incubated for 16 to 20 hrs by microdilution method; assay type: functional; settings: time 16-20 hrs
[14] = tested on: Pseudomonas aeruginosa; assay: Antibacterial activity against Pseudomonas aeruginosa ATCC 15442 assessed as inhibition of bacterial growth incubated for 16 to 20 hrs by microdilution method; assay type: functional; settings: time 16-20 hrs
[15] = tested on: Escherichia coli; assay: Antibacterial activity against Escherichia coli ATCC 25922 assessed as inhibition of bacterial growth incubated for 16 to 20 hrs compound conjugated on alpha-helical coiled-coil FF03 peptide by microdilution method; assay type: functional; settings: time 16-20 hrs
[16] = tested on: Cell membrane; assay: Disruption of cell membrane in methicillin-resistant Staphylococcus aureus ATCC 43300 assessed as complete rupture of bacterial cell surface at 9 ug/ml incubated for 3 hrs by scanning electron microscopy; assay type: subcellular; settings: dose 9.0 µg/ml
[17] = tested on: Staphylococcus aureus; assay: Antibacterial activity against Staphylococcus aureus ATCC 25923 assessed as inhibition of bacterial growth incubated for 16 to 20 hrs compound conjugated on alpha-helical coiled-coil FF03 peptide by microdilution method; assay type: functional; settings: time 16-20 hrs

Question: For `CC(C)C[C@H](NC(=O)[C@@H](N)CCCNC(=N)N)C(=O)N1CCC[C@H]1C(=O)N[C@@H](Cc1c[nH]c2ccccc12)C(=O)N[C@@H](CCCNC(=N)N)C(=O)N[C@@H](Cc1c[nH]c2ccccc12)C(=O)N1CCC[C@H]1C(=O)N[C@@H](CCCNC(=N)N)C(=O)N[C@@H](CCCNC(=N)N)C(=O)N1CCC[C@H]1C(=O)N[C@@H](Cc1c[nH]c2ccccc12)C(=O)N[C@@H](CCCNC(=N)N)C(=O)N[C@@H](CCCNC(=N)N)C(=O)O` (H-RLPWRWPRRPWRR-OH), which MIC [1] is on record?
Answer: The MIC was 65.2 µM (≈ 125 µg/mL).

Question: What about the Activity [2] of the same compound?
Answer: Its Activity is “Active”.

Question: And the hemolysis at 0.75 h, 100 ug/ml [3]?
Answer: Its hemolysis at 0.75 h, 100 ug/ml is less than 15%.

Question: What about the Activity [4] of the same compound?
Answer: The Activity was “Non-Toxic”.

Question: What about the MIC [5] of the same compound?
Answer: The MIC was 130 µM (≈ 250 µg/mL).

Question: And the Activity [6]?
Answer: The Activity was “Non-Toxic”.

Question: What about the hemolysis at 0.75 h, 100 ug/ml [7] of the same compound?
Answer: Its hemolysis at 0.75 h, 100 ug/ml is less than 15%.

Question: What about the Activity [8] of the same compound?
Answer: The Activity was “Non-Toxic”.

Question: And the MIC [9]?
Answer: The MIC was 1.36 µM (≈ 2.61 µg/mL).

Question: And the MIC [10]?
Answer: The MIC was 1.75 µM (≈ 3.36 µg/mL).

Question: What about the Activity [11] of the same compound?
Answer: Its Activity is “Non-Toxic”.

Question: What about the Activity [12] of the same compound?
Answer: Its Activity is “Active”.

Question: And the MIC [13]?
Answer: Its MIC is 130 µM (≈ 250 µg/mL).

Question: And the MIC [14]?
Answer: Its MIC is 65.2 µM (≈ 125 µg/mL).

Question: What about the MIC [15] of the same compound?
Answer: The MIC was 2.34 µM (≈ 4.49 µg/mL).

Question: And the Activity [16]?
Answer: Its Activity is “Active”.

Question: And the MIC [17]?
Answer: The MIC was 0.97 µM (≈ 1.86 µg/mL).

Question: For `CC[C@H]1OC(=O)[C@H](C)[C@@H](O[C@H]2C[C@@](C)(OC)[C@@H](O)[C@H](C)O2)[C@H](C)[C@@H](O[C@@H]2O[C@H](C)C[C@H](N(C)C)[C@H]2O)[C@](C)(O)C[C@@H](C)C(=O)[C@H](C)[C@@H](O)[C@]1(C)O` [ERYTHROMYCIN], which MIC [13] is on record?
Answer: The MIC was greater than 128 µM.

Question: Which MIC [13] does the source give for `NC[C@H]1O[C@H](O[C@H]2[C@H](O)[C@@H](O[C@H]3O[C@H](CO)[C@@H](O)[C@H](N)[C@H]3O)[C@H](N)C[C@@H]2N)[C@H](O)[C@@H](O)[C@@H]1O` [KANAMYCIN] here?
Answer: Its MIC is greater than 128 µM.

Question: Which results are given for `CC(=O)NC[C@H]1CN(c2ccc(N3CCOCC3)c(F)c2)C(=O)O1` [LINEZOLID]?
Answer: MIC [1]: 1.5 µM (≈ 0.506 µg/mL); MIC [13]: 4 µM (≈ 1.35 µg/mL)

Question: Which MIC [13] does the source give for `COc1cc(Cc2cnc(N)nc2N)cc(OC)c1OC` [TRIMETHOPRIM] here?
Answer: Its MIC is 2 µM (≈ 0.581 µg/mL).

Question: For `CN[C@H](CC(C)C)C(=O)N[C@H]1C(=O)N[C@@H](CC(N)=O)C(=O)N[C@H]2C(=O)N[C@H]3C(=O)N[C@H](C(=O)N[C@H](C(=O)O)c4cc(O)cc(O)c4-c4cc3ccc4O)[C@H](O)c3ccc(c(Cl)c3)Oc3cc2cc(c3O[C@@H]2O[C@H](CO)[C@@H](O)[C@H](O)[C@H]2O[C@H]2C[C@](C)(N)[C@H](O)[C@H](C)O2)Oc2ccc(cc2Cl)[C@H]1O` [VANCOMYCIN], which MIC [1] is on record?
Answer: Its MIC is 1.38 µM (≈ 2 µg/mL).

Question: What about the MIC [13] of the same compound?
Answer: The MIC was 0.5 µM (≈ 0.725 µg/mL).

Question: For GENTAMICIN, which MIC [14] is on record?
Answer: The MIC was 1.63 µM.
